We go through 23 compounds from patent publication US11702404B2, “GLP-1R modulating compounds” (priority 2019, dated 2023).

Series [1] can be described thus: Microsomal stability, human liver microsomes (predicted hepatic clearance). Conditions: predicted from in vitro microsomal stability data.
Another series concerns the target GLP-1R (Homo sapiens, UniProt P43220). The experiment in a line: GLP-1R activation: cAMP increase in CHO cells stably expressing GLP-1R. Type of series: cell-based. Conditions: cAMP increase, CHO cells stably expressing GLP-1R, 10 point dose response, 30 minutes incubation; read-out: EC50.

Molecules are shown by their SMILES. pEC50: −log10 of the molar value.

Chain of GLP-1R (P43220 24-463): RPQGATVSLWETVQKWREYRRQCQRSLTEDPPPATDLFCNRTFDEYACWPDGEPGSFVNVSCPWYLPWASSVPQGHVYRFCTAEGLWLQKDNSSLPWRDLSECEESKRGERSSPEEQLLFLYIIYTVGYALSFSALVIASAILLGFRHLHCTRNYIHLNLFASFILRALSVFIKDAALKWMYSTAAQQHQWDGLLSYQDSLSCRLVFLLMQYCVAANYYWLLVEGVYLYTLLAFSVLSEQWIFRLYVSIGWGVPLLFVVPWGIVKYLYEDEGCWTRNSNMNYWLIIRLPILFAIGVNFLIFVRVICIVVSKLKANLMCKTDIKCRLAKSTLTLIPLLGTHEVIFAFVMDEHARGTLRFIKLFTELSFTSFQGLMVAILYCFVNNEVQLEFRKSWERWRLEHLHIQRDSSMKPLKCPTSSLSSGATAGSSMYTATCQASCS

Broadly, the pEC50 is the EC50 on a negative log10 scale, so that one unit is a factor of ten. Take `COCCn1c(Cc2ccc(-c3cccc(OCc4ccc(C#N)cc4F)n3)cc2Br)nc2ccc(C(=O)O)cc21` [Example 239, 2-(2-bromo-4-(6-((4-cyano-2-fluorobenzyl)oxy)pyridin-2-yl)benzyl)-1-(2-methoxyethyl)-1H-benzo[d]imidazole-6-carboxylic]: in series [1], the “Predicted Hepatic Clearance (Pred. Cl.)” value was under 1.83 mL/min/kg. Further, the pEC50 at GLP-1R is 8.13.
For `COCCn1c(Cc2ccc(-c3cccc(OCc4ccc(C#N)cc4F)n3)cc2C#CC2(CO)CC2)nc2ccc(C(=O)O)cc21` [Example 240, 2-(4-(6-((4-cyano-2-fluorobenzyl)oxy)pyridin-2-yl)-2-((1-(hydroxymethyl)cyclopropyl)ethynyl)benzyl)-1-(2-methoxyethyl)-1H-benzo[d]imidazole-6-carboxylic acid] the same measures were 13.7 mL/min/kg and 8.17.
For `COCCn1c(Cc2ccc(-c3cccc(OCc4cccc5c4OCCC5)n3)cc2F)nc2ccc(C(=O)O)cc21` [Example 241, 2-(4-(6-(chroman-8-ylmethoxy)pyridin-2-yl)-2-fluorobenzyl)-1-(2-methoxyethyl)-1H-benzo[d]imidazole-6-carboxylic acid], in that order: 9.83 mL/min/kg and 7.45.
For `CCn1c(Cc2ccc(-c3cccc(OCc4ccc(C#N)cc4F)n3)cc2F)nc2ccc(C(=O)O)cc21` [Example 242, 2-(4-(6-((4-cyano-2-fluorobenzyl)oxy)pyridin-2-yl)-2-fluorobenzyl)-1-ethyl-1H-benzo[d]imidazole-6-carboxylic acid], in series [1], the “Predicted Hepatic Clearance (Pred. Cl.)” value is under 1.83 mL/min/kg. Further, at GLP-1R, the pEC50 is 7.74.
For `COCCn1c(Cc2ccc(-c3cccc(OCc4ccc(C#N)cc4OC)n3)cc2F)nc2ccc(C(=O)O)cc21` [Example 243, 2-(4-(6-((4-cyano-2-methoxybenzyl)oxy)pyridin-2-yl)-2-fluorobenzyl)-1-(2-methoxyethyl)-1H-benzo[d]imidazole-6-carboxylic acid] the same measures were 10.2 mL/min/kg and 9.06.
For `COCCn1c(Cc2ccc(-c3cccc(OCc4ccc(Cl)cc4OCC(F)F)n3)cc2F)nc2ccc(C(=O)O)cc21` [Example 244, 2-(4-(6-((4-chloro-2-(2,2-difluoroethoxy)benzyl)oxy)pyridin-2-yl)-2-fluorobenzyl)-1-(2-methoxyethyl)-1H-benzo[d]imidazole-6-carboxylic acid] the same measures were 5.67 mL/min/kg and 6.80.
As to `COCCn1c(Cc2ccc(-c3cccc(OCc4ccc(C#N)cc4OCC(F)F)n3)cc2F)nc2ccc(C(=O)O)cc21` [Example 245, 2-(4-(6-((4-cyano-2-(2,2-difluoroethoxy)benzyl)oxy)pyridin-2-yl)-2-fluorobenzyl)-1-(2-methoxyethyl)-1H-benzo[d]imidazole-6-carboxylic acid], in series [1], the “Predicted Hepatic Clearance (Pred. Cl.)” value was 4.5 mL/min/kg. For the same compound, the pEC50 at GLP-1R was 6.85.
For `COCCn1c(Cc2ccc(-c3cccc(OC4CCOc5cc(C#N)ccc54)n3)cc2F)nc2ccc(C(=O)O)cc21` (stereo not shown) [Example 246, 2-(4-(6-((7-cyanochroman-4-yl)oxy)pyridin-2-yl)-2-fluorobenzyl)-1-(2-methoxyethyl)-1H-benzo[d]imidazole-6-carboxylic acid], in that order: 4.67 mL/min/kg and 5.95.
For `COCCn1c(Cc2ccc(-c3cccc(OCc4ccc(Cl)cc4OC)n3)cc2F)nc2ccc(C(=O)O)cc21` [Example 247, 2-(4-(6-((4-chloro-2-methoxybenzyl)oxy)pyridin-2-yl)-2-fluorobenzyl)-1-(2-methoxyethyl)-1H-benzo[d]imidazole-6-carboxylic acid], in that order: 6.83 mL/min/kg and 8.66.
For the compound `COCCn1c(Cc2ccc(-c3cccc(OCc4ccccc4SC(F)(F)F)n3)cc2F)nc2ccc(C(=O)O)cc21` [Example 248, 2-(2-fluoro-4-(6-((2-((trifluoromethyl)thio)benzyl)oxy)pyridin-2-yl)benzyl)-1-(2-methoxyethyl)-1H-benzo[d]imidazole-6-carboxylic acid], in series [1], the “Predicted Hepatic Clearance (Pred. Cl.)” value is 17.8 mL/min/kg. Also, the negative-log EC50 (pEC50) on GLP-1R was 5.45.
Turning to `COCCn1c(Cc2ccc(-c3cccc(OCc4ccccc4SC)n3)cc2F)nc2ccc(C(=O)O)cc21` [Example 249, 2-(2-fluoro-4-(6-((2-(methylthio)benzyl)oxy)pyridin-2-yl)benzyl)-1-(2-methoxyethyl)-1H-benzo[d]imidazole-6-carboxylic acid], in series [1], the “Predicted Hepatic Clearance (Pred. Cl.)” value is 15.5 mL/min/kg. Further, the pEC50 at GLP-1R is 6.76.
For `COCCn1c(Cc2ccc(-c3cccc(OCc4ccc5c(c4)OC(F)(F)O5)n3)cc2F)nc2ccc(C(=O)O)cc21` [Example 250, 2-(4-(6-((2,2-difluorobenzo[d][1,3]dioxol-5-yl)methoxy)pyridin-2-yl)-2-fluorobenzyl)-1-(2-methoxyethyl)-1H-benzo[d]imidazole-6-carboxylic acid], in that order: under 1.83 mL/min/kg and 7.93.
For `COCCn1c(Cc2ccc(-c3cccc(OCc4cc(F)c(C#N)cc4OC)n3)cc2F)nc2ccc(C(=O)O)cc21` [Example 251, 2-(4-(6-((4-cyano-5-fluoro-2-methoxybenzyl)oxy)pyridin-2-yl)-2-fluorobenzyl)-1-(2-methoxyethyl)-1H-benzo[d]imidazole-6-carboxylic acid] the same measures were under 1.83 mL/min/kg and 8.50.
For `COCCn1c(Cc2ccc(-c3cccc(OCc4ccc(F)cc4OC)n3)cc2F)nc2ccc(C(=O)O)cc21` [Example 252, 2-(2-fluoro-4-(6-((4-fluoro-2-methoxybenzyl)oxy)pyridin-2-yl)benzyl)-1-(2-methoxyethyl)-1H-benzo[d]imidazole-6-carboxylic acid], in that order: under 1.83 mL/min/kg and 8.42.
For `COCCn1c(Cc2ccc(-c3cccc(OCc4ccc(C#N)cc4F)n3)cc2C#Cc2cncnc2)nc2ccc(C(=O)O)cc21` [Example 254, 2-(4-(6-((4-cyano-2-fluorobenzyl)oxy)pyridin-2-yl)-2-(pyrimidin-5-ylethynyl)benzyl)-1-(2-methoxyethyl)-1H-benzo[d]imidazole-6-carboxylic acid], in series [1], the “Predicted Hepatic Clearance (Pred. Cl.)” value was under 1.83 mL/min/kg. The pEC50 at GLP-1R was 7.16.
On to `COCCn1c(Cc2ccc(-c3cccc(OCc4ccc(C#N)cc4F)n3)cc2C#CCCO)nc2ccc(C(=O)O)cc21` [Example 255, 2-(4-(6-((4-cyano-2-fluorobenzyl)oxy)pyridin-2-yl)-2-(4-hydroxybut-1-yn-1-yl)benzyl)-1-(2-methoxyethyl)-1H-benzo[d]imidazole-6-carboxylic acid], for which, in series [1], the “Predicted Hepatic Clearance (Pred. Cl.)” value was 8.17 mL/min/kg. Further, the pEC50 on GLP-1R was 8.48.
For `COCCn1c(Cc2ccc(-c3cccc(OCc4ccc(F)cc4)n3)cc2F)nc2ccc(C(=O)O)cc21` [Example 256, 2-(2-fluoro-4-(6-((4-fluorobenzyl)oxy)pyridin-2-yl)benzyl)-1-(2-methoxyethyl)-1H-benzo[d]imidazole-6-carboxylic acid] the same measures were 5.33 mL/min/kg and 7.51.
For `COCCn1c(Cc2ccc(-c3cccc(OCc4ccc(C#N)cc4F)n3)cc2C#CC2CC2)nc2ccc(C(=O)O)cc21` [Example 257, 2-(4-(6-((4-cyano-2-fluorobenzyl)oxy)pyridin-2-yl)-2-(cyclopropylethynyl)benzyl)-1-(2-methoxyethyl)-1H-benzo[d]imidazole-6-carboxylic acid] the same measures were 5.83 mL/min/kg and 8.84.
For `COCCn1c(Cc2ccc(-c3cccc(OCc4ccc(C#N)cc4F)n3)c(N)c2)nc2ccc(C(=O)O)cc21` [Example 259, 2-(3-amino-4-(6-((4-cyano-2-fluorobenzyl)oxy)pyridin-2-yl)benzyl)-1-(2-methoxyethyl)-1H-benzo[d]imidazole-6-carboxylic acid], in that order: 3.3 mL/min/kg and 7.17.
As to `COCCn1c(Cc2ccc(-c3cccc(OCc4ccc(C#N)cc4F)n3)cc2-c2cc[nH]n2)nc2ccc(C(=O)O)cc21` [Example 260, 2-(4-(6-((4-cyano-2-fluorobenzyl)oxy)pyridin-2-yl)-2-(1H-pyrazol-3-yl)benzyl)-1-(2-methoxyethyl)-1H-benzo[d]imidazole-6-carboxylic acid], the “Predicted Hepatic Clearance (Pred. Cl.)” value in series [1] is 10.8 mL/min/kg. Further, the pEC50 on GLP-1R is 6.95.
For `COCCn1c(Cc2ccc(-c3cccc(OCc4ccc(C#N)cc4F)n3)c(Br)c2)nc2ccc(C(=O)O)cc21` [Example 261, 2-(3-bromo-4-(6-((4-cyano-2-fluorobenzyl)oxy)pyridin-2-yl)benzyl)-1-(2-methoxyethyl)-1H-benzo[d]imidazole-6-carboxylic acid], in that order: 8 mL/min/kg and 6.74.
For `COCCn1c(Cc2ccc(-c3cccc(OCc4cc(F)c(C#N)cc4F)n3)cc2F)nc2ccc(C(=O)O)cc21` [Example 262, 2-(4-(6-((4-cyano-2,5-difluorobenzyl)oxy)pyridin-2-yl)-2-fluorobenzyl)-1-(2-methoxyethyl)-1H-benzo[d]imidazole-6-carboxylic acid] the same measures were under 1.83 mL/min/kg and 7.54.
For `CC1(C)CC(Cn2c(Cc3ccc(-c4cccc(OCc5ccc(C#N)cc5F)n4)cc3F)nc3ccc(C(=O)O)cc32)O1` (stereo not shown) [Example 263, 2-(4-(6-((4-cyano-2-fluorobenzyl)oxy)pyridin-2-yl)-2-fluorobenzyl)-1-((4,4-dimethyloxetan-2-yl)methyl)-1H-benzo[d]imidazole-6-carboxylic acid], in that order: 7 mL/min/kg and 7.04.
